Results on 9 compounds are retold here after PubChem BioAssay (NCI).

The structures appear in SMILES notation. Values joined by “and” are separate entries in the source; they are usually repeats but may differ in a detail not shown here. Equal entries are not always repeated.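 Five compound concentrations were applied to cells in 96-well plates for 48 hours; endpoints were derived by simple linear interpolation of the resulting dose-response curve. Abbreviation: GI50, concentration required for 50% inhibition of growth. TGI is the concentration that stops growth completely.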

Test systems include HCC-2998 colon; SR leukemia; SK-OV-3 ovarian; SK-MEL-5 melanoma; K-562 leukemia; HL-60(TB) leukemia; M14 melanoma; OVCAR-5 ovarian; HCT-116 colon; NCI-H522 lung.
What all share (experiment): growth of human tumour cells (NCI), 48 h

With `C/C(CC(=O)Nc1ccc(NC(=O)C/C(C)=N\NC(N)=O)cc1)=N/NC(N)=O`, the TGI in the experiment with HCC-2998 colon is more than 100 µM; in the experiment with SR leukemia it was more than 62.5 µM; with SK-OV-3 ovarian, more than 100 µM; with SK-MEL-5 melanoma, more than 100 µM; with K-562 leukemia, more than 100 µM; in the experiment on HL-60(TB) leukemia it was more than 100 µM. Also, the TGI with M14 melanoma, in the experiment with OVCAR-5 ovarian, in the experiment on HCT-116 colon and with NCI-H522 lung was more than 100 µM in each case.

In the case of `COc1ccc(-c2nn3ncccc3c2-c2ccnc(Nc3ccc4c(c3)OCCO4)n2)cc1`, the GI50 with HCC-2998 colon is 11 µM; in the experiment on SR leukemia, 16.1 µM; with SK-OV-3 ovarian, 4.08 µM; in the experiment with SK-MEL-5 melanoma, 6.26 µM; in the experiment on K-562 leukemia, 9.06 µM; with HL-60(TB) leukemia, 12.9 µM. Further, the GI50 was 8.55 µM with M14 melanoma, 5.72 µM in the experiment with OVCAR-5 ovarian, 8.16 µM in the experiment with HCT-116 colon and 5.56 µM with NCI-H522 lung. Further, the TGI is more than 25 µM with HCC-2998 colon; more than 25 µM with SR leukemia; more than 20.8 µM in the experiment on SK-OV-3 ovarian; more than 25 µM in the experiment on SK-MEL-5 melanoma; more than 25 µM in the experiment on K-562 leukemia; more than 25 µM in the experiment on HL-60(TB) leukemia. Besides, the TGI is more than 25 µM in the experiment on M14 melanoma, more than 25 µM in the experiment on OVCAR-5 ovarian, more than 25 µM in the experiment on HCT-116 colon and 23 µM in the experiment on NCI-H522 lung.

Consider `c1ccc(C2CC(c3ccc4ccccc4c3)=Nc3ccccc3S2)cc1` (stereo not drawn), for which the TGI was 24.8 µM in the experiment with HCC-2998 colon; more than 100 µM in the experiment with SR leukemia; 80.9 µM in the experiment with SK-OV-3 ovarian; 35.3 µM in the experiment on SK-MEL-5 melanoma; 59.3 µM in the experiment with K-562 leukemia; 55.9 µM in the experiment on HL-60(TB) leukemia. In addition, the TGI in the experiment with M14 melanoma came to 31.2 µM; with OVCAR-5 ovarian it was 37.6 µM; in the experiment on HCT-116 colon it was 30 µM; with NCI-H522 lung, 33.2 µM.

In the case of `CCc1nn2ncccc2c1-c1ccnc(NC2CC2)n1`, the GI50 in the experiment on HCC-2998 colon, in the experiment with SR leukemia, in the experiment on SK-OV-3 ovarian, in the experiment on SK-MEL-5 melanoma, with K-562 leukemia and in the experiment on HL-60(TB) leukemia was more than 25 µM in each case. Moreover, the GI50 in the experiment with M14 melanoma, in the experiment with OVCAR-5 ovarian, with HCT-116 colon and in the experiment on NCI-H522 lung was more than 25 µM throughout. The TGI with HCC-2998 colon, in the experiment on SR leukemia, in the experiment on SK-OV-3 ovarian, in the experiment on SK-MEL-5 melanoma, in the experiment on K-562 leukemia and with HL-60(TB) leukemia was more than 25 µM in each case. Further, the TGI in the experiment with M14 melanoma, in the experiment on OVCAR-5 ovarian, in the experiment with HCT-116 colon and with NCI-H522 lung was more than 25 µM in each case.

Consider `O=C(Oc1ccccc1)C(Br)C(Br)c1ccccc1` (stereo not drawn), for which the GI50 in the experiment on HCC-2998 colon is 11.8 µM; in the experiment with SR leukemia, 1.93 µM; with SK-OV-3 ovarian, 15.9 µM; in the experiment on SK-MEL-5 melanoma it was 13.1 µM; in the experiment on K-562 leukemia, 1.95 µM; with HL-60(TB) leukemia it was 3.13 µM. In addition, the GI50 with M14 melanoma was 2.68 µM; with OVCAR-5 ovarian it was 7 µM; in the experiment with HCT-116 colon it was 1.8 µM; in the experiment on NCI-H522 lung it was 1.69 µM. The TGI in the experiment with HCC-2998 colon was determined as 24.7 µM; with SR leukemia it was 5.5 µM; with SK-OV-3 ovarian it was 29.3 µM; with SK-MEL-5 melanoma, 25.8 µM; in the experiment with K-562 leukemia, 9 µM; with HL-60(TB) leukemia it was 15.9 µM. Moreover, the TGI in the experiment on M14 melanoma turned out to be 7.51 µM; with OVCAR-5 ovarian, 20.8 µM; in the experiment with HCT-116 colon, 3.54 µM; in the experiment on NCI-H522 lung, 3.39 µM.

As to `C=C(CN1c2ccccc2Sc2ccccc21)c1ccc(C(=O)Nc2ccccc2N)cc1`, the GI50 is 14.6 µM in the experiment with HCC-2998 colon; 2.32 µM with SR leukemia; 11.7 µM with SK-OV-3 ovarian; 44.7 µM with SK-MEL-5 melanoma; 2.47 µM in the experiment with K-562 leukemia; 0.184 µM in the experiment on HL-60(TB) leukemia. The GI50 in the experiment with M14 melanoma was 32.9 µM; in the experiment with OVCAR-5 ovarian, more than 100 µM; in the experiment on HCT-116 colon, 11.1 µM; in the experiment on NCI-H522 lung it was 1.63 µM. In addition, the TGI with HCC-2998 colon was more than 86.3 µM; with SR leukemia, more than 59.5 µM; with SK-OV-3 ovarian, more than 100 µM; with SK-MEL-5 melanoma, more than 100 µM; with K-562 leukemia, more than 100 µM; in the experiment with HL-60(TB) leukemia, more than 100 µM. Besides, the TGI in the experiment with M14 melanoma, in the experiment on OVCAR-5 ovarian, with HCT-116 colon and with NCI-H522 lung was more than 100 µM throughout.

Regarding `CC1=C(C(=O)Nc2ccccc2)C(c2cc(Cl)cc(Cl)c2)C(C(=O)Nc2ccccc2)=C(C)N1`, the TGI is 25.7 µM with HCC-2998 colon; 12.6 µM in the experiment on SR leukemia; 98.7 µM in the experiment with SK-OV-3 ovarian; 27.7 µM in the experiment on SK-MEL-5 melanoma; 13.6 µM in the experiment on K-562 leukemia; 6.52 µM in the experiment on HL-60(TB) leukemia. In addition, the TGI is 27.8 µM in the experiment on M14 melanoma, 39 µM with OVCAR-5 ovarian, 21.6 µM in the experiment with HCT-116 colon and 13.3 µM with NCI-H522 lung.

In the case of `O=C(N/C(=C/c1cccc([N+](=O)[O-])c1)c1nc2ccc(Cl)cc2[nH]1)c1ccccc1`, the TGI in the experiment on HCC-2998 colon was determined as 70.4 µM; in the experiment with SR leukemia it was 41.3 µM; in the experiment with SK-OV-3 ovarian, 86.6 µM; in the experiment with SK-MEL-5 melanoma it was 12.7 µM; in the experiment with K-562 leukemia it was 46.9 µM; in the experiment on HL-60(TB) leukemia, 20.2 µM. For the same compound, the TGI in the experiment on M14 melanoma is more than 100 µM; in the experiment on OVCAR-5 ovarian it was 78.6 µM; with HCT-116 colon, 25.8 µM; with NCI-H522 lung, 39.1 µM.

As for `CN(C)CCCCCNc1c2ccccc2nc2cccc([N+](=O)[O-])c12`, the GI50 in the experiment with HCC-2998 colon is 0.00237 µM; with SR leukemia, 0.000559 µM; in the experiment on SK-MEL-5 melanoma, 0.00693 µM; in the experiment on K-562 leukemia, 0.00212 µM; with HL-60(TB) leukemia it was 0.00266 µM; with OVCAR-5 ovarian, 0.00264 µM. Besides, the GI50 was 0.00583 µM with HCT-116 colon; 0.00154 µM and 0.000466 µM in the experiment with NCI-H522 lung. For the same compound, the TGI in the experiment on HCC-2998 colon was 0.0126 µM; with SR leukemia, 0.00697 µM and > 0.0278 µM; in the experiment on SK-OV-3 ovarian, more than 0.0245 µM; with SK-MEL-5 melanoma, 0.00335 µM; with K-562 leukemia, more than 0.0945 µM; in the experiment with HL-60(TB) leukemia it was more than 0.1 µM. Besides, the TGI is 0.00312 µM in the experiment on M14 melanoma; 0.0115 µM in the experiment with OVCAR-5 ovarian; 0.012 µM with HCT-116 colon; 0.0029 µM and 0.00186 µM in the experiment on NCI-H522 lung.
